Measurements taken from patent publication US9266817B2, “Catecholamine derivatives for obesity and neurological disorders” (EMORY UNIVERSITY, priority 2009, dated 2016).

Experiments:
[1] = biological target: T1, TrkB (Rattus norvegicus, UniProt Q63604); experiment: Immunofluorescent staining with anti-phospho-TrkB Y816 in primary hippocampal neurons; type: cell-based; conditions: 300 nM, 30 min
T1 construct: endogenous in cells; host or cells: primary rat cortical and hippocampal neurons
Procedure: Primary Rat Cortical and Hippocampal Neuron Cultures
Primary hippocampal neurons were seeded on poly-L-lysine coated coverslips in a 12-well plate. After 7 days in vitro, the neurons were treated with 100 ng/ml BDNF or variety of neurotransmitters and 7,8-dihydroxyflavone compound (500 nM) for 30 min, and then washed with PBS. Cells were fixed with 3% formaldehyde in PBS at room temperature for 15 min. The cells were then permeabilized and blocked by 0.4% Triton X-100 and 2% FBS in PBS at room temperature for 15 minutes, washed with PBS three times and treated with anti-MAP2 (1:200) and anti-phospho-TrkB antibodies (1:100). After staining with FITC- or Rhodamine-conjugated secondary antibody, the coverslips were mounted on slides. Fluorescent images were taken by OLYMPUS IX71 fluorescence microscope (Olympus; Center Valley, Pa.).
(§1) To explore whether monoamine neurotransmitters, including catecholamines (see, e.g., FIG. 1), could stimulate TrkB activation, hippocampal neurons were treated with 300 nM of catecholamines, serotonin, and melatonin for 30 min.

[2] = biological target: T1, TrkB; experiment: Immunoblotting of TrkB phosphorylation in primary cortical neurons treated with catecholamines; type: cell-based; conditions: for TrkB activation (immunoblotting of neuronal lysates): primary neurons
Procedure: Primary cultured rat cortical neurons were prepared as follows. E17 rat pups were decapitated and cortex was extirpated, cross chopped and suspended by pipetting for separation in 5% fetal calf serum (FCS), 5% horse serum (HS) DMEM. The cell suspension was then centrifuged at 250×g for 5 min. This operation was repeated. Cells were seeded into polyethyleneimine-coated 10 cm^2 dishes and 12-well plates including coated-coverslips and incubated at 37° C. in 5% CO2/95% air. After 3 hours, the culture medium was changed to Neurobasal containing B-27 supplement (Invitrogen; Carlsbad, Calif.) and incubated for 4 days. For maintenance, half of the culture medium was changed to fresh Neurobasal/B27 in every 4 days. After 1 week, the dished cultured neurons were ready for use.
as §1

[3] = test system: TrkB; experiment: TrkB activation in mouse brain after administration of catecholamine derivatives (anti-p-TrkB-Y-816 immunoblot); type: in vivo; conditions: 50 mg/kg orally (in saline), C57BL/6J mice
Procedure: To explore whether these compounds could stimulate TrkB in vivo, 50 mg/kg of Compound I-11, Compound I-8, and Compound I-2 (2-(methylamino)-3′,4′-dihydroxy-acetophenone) were each orally administered (in saline) to 2-month-old C57BL/6J mice. The mice were sacrificed at different time points and TrkB activation in the brains of the mice was monitored by immunoblotting with anti-p-TrkB-Y-816 antibody.
To determine the minimal required dosages for Compound I-11 and Compound I-8, different doses of the compounds were each orally administered to mice. The mice were sacrificed after 4 hours, and the brain lysates were analyzed by immunoblotting with anti-p-TrkB-Y-816 antibody.
To search for orally bioactive catecholamines, catecholamine derivatives described herein were screened using primary neuronal cultures. The in vitro active compounds, Compounds I-8 and I-11, were adminstered into two to three month old C57BL/6J mice orally, intraperitoneally, and in drinking water. For oral administration, the mice were administered 0 mg (control), 5 mg, 10 mg, 20 mg, or 50 mg of Compound I-8 or Compound I-11. After 4 hours, TrkB phosphorylation in mouse brain was monitored by analyzing the brain lysates using immunoblotting with anti-p-TrkB-Y-816 antibody. The ratios of p-TrK/total TrkB were quantified (FIG. 27A). For intraperitoneal administration, 50 mg/kg of Compound I-8 or Compound I-11 were intraperitoneally injected into the mice. The brain lysates were prepared at different times (0 hr, 1 hr, 2 hr, 4 hr, and 8 hr) and were analyzed by immunoblotting with anti-p-TrkB-Y-816 antibody (FIG. 27B). Compound I-8 and Compound I-11 were dissolved in drinking water and given to mice. After 24 h, the brain lysates were prepared and analyzed by immunoblotting with anti-p-TrkB-Y-816 antibody (FIG. 27C). […] Therefore, these compounds are useful in treating various neurological or neuropsychiatric diseases as described herein.

[4] = biological target: T1, TrkB; experiment: Screening of catecholamine derivatives for TrkB activation in primary cortical neurons (anti-p-TrkB-Y-816 immunoblot); type: cell-based; conditions: 500 nM, 30 min
Procedure: Catecholamines can directly bind to the kinase domain of the TrkB receptor and activate it. However, the catecholamines are not able to cross through the blood brain barrier. […] Cortical neurons (7 DIV cortical neurons from 18 day old Sprague Dawley rat embryos) were treated with 500 nM of the selected compound for 30 min and cell lysates were prepared. The cell lysates ([…]) were analyzed for TrkB activation by immunoblotting with anti-p-TrkB-Y-816 antibody.
Catecholamine derivatives as described herein, including Compound I-2, Compound I-5, Compound I-7, Compound I-8, Compound I-9, Compound I-10, Compound I-11, Compound I-14, Compound I-15, Compound I-17, Compound I-18, and isoproterenol, were screened for TrkB activation in primary cortical neurons. Cortical neurons (7 DIV cortical neurons from 18 day old Sprague Dawley rat embryos) were treated with 500 nM of the selected compound for 30 min and cell lysates were prepared. The cell lysates ([…]) were analyzed for TrkB activation by immunoblotting with anti-p-TrkB-Y-816 antibody.

[5] = biological target: T2, TrkB (Mus musculus, UniProt P15209); type: cell-based, mice; conditions: compared to wild-type control neurons
T2 construct: endogenous in cells; host or cells: primary cortical neurons from BDNF-null, TrkB +/- cross, TrkC knockout and NET -/- mice
Procedure: (§2) It was then determined whether catecholamines could activate TrkB in neurons cultured from mice carrying a null mutation of NET.

[6] = test system: TrkB; type: in vivo; conditions: BDNF conditional knockout mice, compared to vehicle control
[7] = biological target: T3, TrkB (Mus musculus, UniProt P15209, F616A); type: in vivo; conditions: L-DOPA 50 mg/kg, DOPS 100 mg/kg, 1NMPP1 50 μM
T3 construct: from tissue; host or cells: mouse brain
Procedure: The DOPS concentration was 20 mg/ml, the vitamin C concentration was 2 mg/ml, and the benserazide concentration was 5 mg/ml. The vitamin C prevents oxidation of the DOPS, and the benserazide is a peripheral inhibitor of AADC and restricts the production of NE from DOPS to the brain. The compounds were added to a tube, and 20 μl of 10 M HCl was added to each ml of DOPS solution. The appropriate amount of water was added to the tube, and then HCl was added to achieve the desired volume. For example, to make 1 mL of a DOPS solution, 20 mg DOPS, 2 mg vitamin C, and 5 mg benserazide were added to a tube, followed by 980 μL of water and 20 μL of 10 M HCl. The solution was vortexed until all DOPS was dissolved. The DOPS solution was injected subcutaneously in a volume of 50 μl/g of mouse. The appropriate amount of DOPS solution was pipetted into a clean tube, followed by the amount of 10 M NaOH required to exactly neutralize the HCl. The solution was then shaken. The amount of 10 M NaOH is the weight of the mouse in microliters. For example, for a 20 g mouse, pipet 1 ml of the DOPS solution is pipetted into a tube and 20 μL of 10 M NaOH is added. For a 30 g mouse, 1.5 mL of the DOPS solution is pipetted into a tube and 30 μl of 10 M NaOH is added. Two to four month-old TrkBF616A mice were pretreated with 1NMPP1 in drinking water (50 μM) 1 day before L-DOPA (50 mg/kg) or DOPS (100 mg/kg) intraperitoneal injection. At times of 2 hours and 5 hours after drug administration, the L-DOPA or DOPS-treated mice were sacrificed, respectively. The brain lysates were prepared and analyzed by immunoblotting against anti-phospho-TrkB Y816 and TrkA Y794 antibodies.
(§3) TrkB F616A mice were pretreated with 1NMPP1 (50 μM) before L-DOPA or DOPS administration.

[8] = biological target: T1, TrkB; experiment: TrkB activation in cortical neurons after pretreatment with antibodies, receptor antagonists, transporter inhibitors or EDTA (anti-p-TrkB-Y-816 immunoblot); type: cell-based
Source text: (§4) Both antidepressants and exercise increase hippocampal BDNF mRNA expression through enhanced 5-HT and/or NE neurotransmission (Siuciak et al., Pharmacol. Biochem. Behav., 56:131-137, 1997; Dias et al., Neuropharmacology, 45:553-563, 2003; Ivy et al., Pharmacol. Biochem. Behav., 75:81-88, 2003; Garza et al., Pharmacol. Biochem. Behav., 77:209-220, 2004). If catecholamines activated TrkB signaling indirectly by promoting BDNF generation, then scavenging BDNF with its specific antibody would be expected to diminish catecholamines-mediated activation of TrkB. Cultured cortical neurons were pretreated with BDNF-IgG for 30 minutes followed by exposure to BDNF (10 ng/ml) or catecholamines (100 nM) for 15 minutes. […] It was then determined whether catecholamines could activate TrkB in neurons cultured from mice carrying a null mutation of BDNF.
To further investigate the specificity of catecholamines in inducing TrkB activation, cortical neurons were pretreated with control IgG or norepinephrine IgG, a rabbit polyclonal antibody for norepinephrine, followed by catecholamines.
as §2
(§5) The cell lysates were analyzed by immunoblotting with anti-p-TrkB-Y-816.
as §5
A group of primary cortical neurons were pretreated with 1 mM EDTA, and another group of primary cortical neurons were not pretreated. Both groups of primary cortical neurons were then treated with either Zn (100 μM) or a catecholamine (100 nM) for 15 minutes. The neuronal cell lysates were analyzed by immunoblotting with anti-p-TrkB-Y-816 antibody.

[9] = biological target: T4, TrkB F616A (Mus musculus, UniProt P15209, F616A); experiment: TrkB phosphorylation in TrkB F616A or TrkA F592A cortical neurons pretreated with K252a or 1NMPP1; type: cell-based, mice; conditions: TrkB F616A knock-in cortical neurons
T4 construct: endogenous in cells; host or cells: primary cortical neurons from TrkB F616A knock-in mice
Procedure: as §3
On day 7, the primary cortical neurons were pretreated with 100 nM K252a or 1NMPP1 for 30 min, followed by 500 nM ADPP and DDAP. Cell lysates were analyzed by Western blotting.

[10] = biological target: T2, TrkB; experiment: TrkB activation in cortical neurons cultured from BDNF-null mice; type: cell-based; conditions: 15 min
Source text: as §4

T1 sequence (Q63604 32-821): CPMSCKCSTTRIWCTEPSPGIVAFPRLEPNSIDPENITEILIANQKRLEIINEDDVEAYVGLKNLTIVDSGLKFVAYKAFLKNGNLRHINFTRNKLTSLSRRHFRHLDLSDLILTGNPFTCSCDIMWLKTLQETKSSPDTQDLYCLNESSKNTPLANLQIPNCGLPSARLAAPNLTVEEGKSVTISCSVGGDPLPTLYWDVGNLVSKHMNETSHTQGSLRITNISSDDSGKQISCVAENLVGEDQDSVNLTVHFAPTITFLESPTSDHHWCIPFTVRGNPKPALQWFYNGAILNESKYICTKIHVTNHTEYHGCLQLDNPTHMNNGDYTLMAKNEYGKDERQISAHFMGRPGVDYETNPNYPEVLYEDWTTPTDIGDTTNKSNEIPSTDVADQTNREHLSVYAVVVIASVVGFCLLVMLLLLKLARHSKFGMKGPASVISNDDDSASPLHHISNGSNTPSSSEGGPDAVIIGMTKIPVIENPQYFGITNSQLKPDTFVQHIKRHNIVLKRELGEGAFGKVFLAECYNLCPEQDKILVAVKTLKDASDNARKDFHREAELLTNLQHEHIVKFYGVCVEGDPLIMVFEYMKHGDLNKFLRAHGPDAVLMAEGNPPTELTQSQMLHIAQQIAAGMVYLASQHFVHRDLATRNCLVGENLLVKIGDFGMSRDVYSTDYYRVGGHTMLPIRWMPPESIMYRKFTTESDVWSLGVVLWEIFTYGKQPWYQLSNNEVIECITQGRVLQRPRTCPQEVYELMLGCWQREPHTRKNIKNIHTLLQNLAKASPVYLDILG
T2 sequence (P15209 32-821): as the sequence (Q63604 32-821) above, with M3T, T9S, T10A, I32V, K63R, G84S, T153M, I185L, T394S, N770S counted along it
T4 sequence (P15209 32-821 F616A): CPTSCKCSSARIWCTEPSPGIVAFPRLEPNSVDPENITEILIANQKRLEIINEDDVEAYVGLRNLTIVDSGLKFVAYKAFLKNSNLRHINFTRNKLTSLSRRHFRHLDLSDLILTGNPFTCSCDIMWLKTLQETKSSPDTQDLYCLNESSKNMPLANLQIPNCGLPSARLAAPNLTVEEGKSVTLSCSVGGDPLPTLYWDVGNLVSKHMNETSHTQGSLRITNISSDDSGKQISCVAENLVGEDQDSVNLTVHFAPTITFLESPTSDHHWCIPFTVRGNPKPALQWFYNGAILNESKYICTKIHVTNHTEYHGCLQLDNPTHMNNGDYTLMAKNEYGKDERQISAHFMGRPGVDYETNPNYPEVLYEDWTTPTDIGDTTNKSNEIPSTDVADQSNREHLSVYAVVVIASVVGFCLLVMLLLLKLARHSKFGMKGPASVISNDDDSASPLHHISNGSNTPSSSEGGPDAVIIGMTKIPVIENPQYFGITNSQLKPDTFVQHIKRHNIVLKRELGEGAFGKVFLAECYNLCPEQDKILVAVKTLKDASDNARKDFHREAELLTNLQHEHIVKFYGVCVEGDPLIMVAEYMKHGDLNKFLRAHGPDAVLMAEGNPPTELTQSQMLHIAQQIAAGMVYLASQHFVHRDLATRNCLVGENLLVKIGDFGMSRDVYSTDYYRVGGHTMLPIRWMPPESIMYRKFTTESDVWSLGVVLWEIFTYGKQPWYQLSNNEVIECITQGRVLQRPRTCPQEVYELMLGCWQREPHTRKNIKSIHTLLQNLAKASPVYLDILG
T3 sequence (P15209 32-821 F616A): as above

Compound: COc1ccc2[nH]cc(CCNC(C)=O)c2c1 [melatonin]
- TrkB tyrosine phosphorylation (immunofluorescent staining) [1]: did not
- TrkB activation (immunoblotting of neuronal lysates) [2]: not activated

Compound: CNCC(=O)c1ccc(O)c(O)c1 [Compound I-2, 2-(methylamino)-3′,4′-dihydroxy-acetophenone]
- TrkB activation in the brains of the mice [3]: failed to activate TrkB
- TrkB activation in primary cortical neurons [4]: display activity

Compound: NCCc1ccc(O)c(O)c1 [dopamine]
- TrkB activation in NET -/- neurons [5]: notable TrkB activation

Compound: NCCc1c[nH]c2ccc(OS(=O)(=O)O)cc12 [Compound 5-HT-sulfate, 5-HT-sulfate]
- TrkB tyrosine phosphorylation (immunofluorescent staining) [1]: had no effect

Compound: N[C@@H](Cc1ccc(O)c(O)c1)C(=O)O [L-DOPA, L-dihydroxyphenylalanine]
- TrkB activation in BDNF -/- cortex [6]: strongly triggered TrkB activation
- TrkB tyrosine phosphorylation/activation in mice [7]: provoked evident TrkB activation
- TrkB activation in primary cultured neurons [2]: rapidly induced TrkB activation

Compound: c1ccc(CCCN2CCN(CCOC(c3ccccc3)c3ccccc3)CC2)cc1 [GBR12935]
- Effect of inhibitor on dopamine-mediated TrkB activation ([8]; cortical neurons): significantly blocked

Compound: NCCc1c[nH]c2ccc(O)cc12 [serotonin]
- TrkB phosphorylation provoked by the substance [9]: had no effect
- Activation of TrkB in BDNF-null cortical neurons [10]: had no effect
- TrkB tyrosine phosphorylation (immunofluorescent staining) [1]: did not
- TrkB activation (immunoblotting of neuronal lysates) [2]: not activated

Compound: CN[C@@H](C(N)=O)C(=O)c1ccc(O)c(O)c1 [Compound I-7]
- TrkB activation in primary cortical neurons [4]: display activity

Compound: O=C(O)Cc1c[nH]c2ccc(O)cc12 [Compound 5-HIAA, 5-hydroxyindoleacetic acid]
- TrkB tyrosine phosphorylation (immunofluorescent staining) [1]: had no effect

Compound: O=C(O)CN(CCN(CC(=O)O)CC(=O)O)CC(=O)O [EDTA]
- Effect of EDTA on stimulatory activity of TrkB activation by Zn ([8]; 1 mM EDTA, Zn 100 μM, 15 minutes): blocked

Compound: CN[C@@H](C(=O)N(C)C)[C@@H](O)c1ccc(O)c(O)c1 [Compound I-15]
- TrkB activation in primary cortical neurons [4]: display activity
